Experiment [1] deals with T1, Human UII receptor, 6D9 human rhabdomyosarcoma cells (Homo sapiens, UniProt Q9UKP6).
T1 construct: 6D9: isolated by dilution subcloning of RMS13 cells, ATCC® Number: CRL-2061; host or cells: 6D9 human rhabdomyosarcoma cells (subclone of RMS13)
T1 sequence (Q9UKP6 1-389): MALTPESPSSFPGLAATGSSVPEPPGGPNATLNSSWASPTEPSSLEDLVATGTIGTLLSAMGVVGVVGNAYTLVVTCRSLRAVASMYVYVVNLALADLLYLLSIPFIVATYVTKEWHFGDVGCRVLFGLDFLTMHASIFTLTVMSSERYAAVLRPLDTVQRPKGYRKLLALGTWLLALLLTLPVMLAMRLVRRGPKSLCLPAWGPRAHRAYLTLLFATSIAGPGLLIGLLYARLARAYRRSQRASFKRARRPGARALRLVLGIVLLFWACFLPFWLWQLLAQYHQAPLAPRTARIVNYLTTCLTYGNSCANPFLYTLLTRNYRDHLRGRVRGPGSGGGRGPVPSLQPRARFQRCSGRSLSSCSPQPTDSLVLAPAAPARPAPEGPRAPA
The experiment can be described thus: Human UII Calcium Mobilization Assay. Type of experiment: cell-based. The note with it: average value, FLIPR TETRA, read-out: Human UII Ca^+ Mobilization Average IC50. Put shortly:
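6D9 rhabdomyosarcoma cells loaded 45 min at 37° C with calcium dye (1.25 mM probenecid, 0.01% FBS, HBSS/20 mM HEPES). Antagonist and U-II agonist added at room temperature; FLIPR fluorescence read over 4 min; EC50/IC50 fitted. DMSO ≤0.1% final.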
Background: A change in cytosolic calcium serves as a functional read-out for many receptors and channels.

In experiment [2] the target is T2, endogenous human UII receptor (Homo sapiens, UniProt Q9UKP6).
T2 sequence (Q9UKP6 1-389): T1 sequence (Q9UKP6 1-389)
The experiment can be described thus: Human Radioligand Binding Assay ((^125I)-U-II binding to human skeletal muscle myoblasts).

Experiment [3] concerns the target T3, rat GPR14 (U-II receptor) (Rattus norvegicus, UniProt P49684).
T3 construct: expressed in transfected cells
T3 sequence (P49684 1-386): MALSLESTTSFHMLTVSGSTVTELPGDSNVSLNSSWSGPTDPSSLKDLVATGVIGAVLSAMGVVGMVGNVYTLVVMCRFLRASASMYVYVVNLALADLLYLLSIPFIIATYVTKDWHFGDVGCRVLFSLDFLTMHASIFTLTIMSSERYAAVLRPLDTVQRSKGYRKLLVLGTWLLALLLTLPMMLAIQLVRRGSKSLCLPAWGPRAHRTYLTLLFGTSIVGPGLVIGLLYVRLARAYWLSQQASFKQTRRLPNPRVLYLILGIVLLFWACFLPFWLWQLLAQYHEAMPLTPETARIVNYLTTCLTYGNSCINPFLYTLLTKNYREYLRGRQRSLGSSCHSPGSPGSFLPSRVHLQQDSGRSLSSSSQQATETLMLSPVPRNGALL
The experiment is described as follows: Rat UII Calcium Mobilization FLIPR Assay. Type of experiment: cell-based. The note with it: average value for the compound tested; read-out: Rat UII FLIPR Average IC50. The method, boiled down: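 CHO cells stably expressing rat U-II receptor, seeded 24 h before assay, were loaded with FLIPR calcium dye in HBSS/20 mM HEPES/0.1% BSA/2.5 mM probenecid, pH 7.4, for 1 h at 37° C. Calcium mobilization then read by FLIPR at 23° C.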

Setting [4] is: read-out: Human UII Average Binding Ki, average value, (^125I)-U-II binding to human skeletal muscle myoblasts (HSMM), 25° C., 3 h.

As usually defined, the IC50 is the concentration that gives 50% inhibition. The Ki is a dissociation constant, usually derived from enzyme kinetics or from competition with a known ligand.

Molecules are shown by their SMILES. Like-named read-outs stand apart in the source and are kept apart here.

Consider `COc1ccc([C@@H](CCCNS(=O)(=O)c2cccs2)N2C(=O)c3cccc(N4CCN(C(C)C)CC4)c3C2=O)cc1OC` [Cpd 198, (R)-thiophene-2-sulfonic acid {4-(3,4-dimethoxy-phenyl)-4-[4-(4-isopropyl-piperazin-1-yl)-1,3-dioxo-1,3-dihydro-isoindol-2-yl]-butyl}-amide], for which the IC50 in experiment [1] is 150 nM; in experiment [3] it was 3.5 nM. Moreover, in experiment [2] (setting [4]), the inhibitory constant (Ki) was 45 nM.

For the molecule `COc1ccc([C@@H](CCCNC(=O)C(C#N)C(C)=O)N2C(=O)c3cccc(N4CCN([C@H](C)c5ccccc5)CC4)c3C2=O)cc1OC` (stereo partly drawn) [Cpd 199, (R)-2-cyano-N-(4-(3,4-dimethoxy-phenyl)-4-{1,3-dioxo-4-[4-(1R)-(1-phenyl-ethyl)-piperazin-1-yl]-1,3-dihydro-isoindol-2-yl}-butyl)-3-oxo-butyramide], the IC50 is 160 nM in experiment [1] and 9.3 nM in experiment [3]. Also, in experiment [2], the Ki came out at 27 nM.

On to `CCN1CCN(c2cccc3c2C(=O)N([C@H](CCCOCc2ccccc2)c2ccc(OC)c(OC)c2)C3=O)CC1` [Cpd 201, (R)-2-[4-benzyloxy-1-(3,4-dimethoxy-phenyl)-butyl]-4-(4-ethyl-piperazin-1-yl)-isoindole-1,3-dione], for which the concentration for half-maximal inhibition (IC50) in experiment [1] is greater than 3000 nM; in experiment [3] it was 49 nM. The Ki in experiment [2] came to 210 nM.

For the molecule `CCN1CCN(c2cccc3c2C(=O)N([C@H](CCCNC(=O)C2CCC2)c2ccc(OC)c(OC)c2)C3=O)CC1` [Cpd 202, (R)-cyclobutanecarboxylic acid {4-(3,4-dimethoxy-phenyl)-4-[4-(4-ethyl-piperazin-1-yl)-1,3-dioxo-1,3-dihydro-isoindol-2-yl]-butyl}-amide], the figures for the IC50 in experiment [1] and in experiment [3] were 960 nM and 120 nM, respectively. Besides, in experiment [2], the affinity corresponds to a Ki of 150 nM.

Take `CCN1CCN(c2cccc3c2C(=O)N([C@H](CCCNS(=O)(=O)c2cn(C)c(C)n2)c2ccc(OC)c(OC)c2)C3=O)CC1` [Cpd 203, (R)-1,2-dimethyl-1H-imidazole-4-sulfonic acid {4-(3,4-dimethoxy-phenyl)-4-[4-(4-ethyl-piperazin-1-yl)-1,3-dioxo-1,3-dihydro-isoindol-2-yl]-butyl}-amide]: the IC50 was 810 nM in experiment [1] and 140 nM in experiment [3]. Further, the Ki in experiment [2] (setting [4]) worked out at 97 nM.

Regarding `CCN1CCN(c2cccc3c2C(=O)N([C@H](CCCO)c2ccc(OC)c(OC)c2)C3=O)CC1` [Cpd 206, (R)-2-[1-(3,4-dimethoxy-phenyl)-4-hydroxy-butyl]-4-(4-ethyl-piperazin-1-yl)-isoindole-1,3-dione], the IC50 worked out at 680 nM in experiment [1] and 690 nM in experiment [3]. The molecule further yielded a Ki in experiment [2] of 66 nM.

Consider `CCOCCC[C@H](c1ccc(OC)c(OC)c1)N1C(=O)c2cccc(N3CCN(CC)CC3)c2C1=O` [Cpd 207, (R)-2-[1-(3,4-dimethoxy-phenyl)-4-ethoxy-butyl]-4-(4-ethyl-piperazin-1-yl)-isoindole-1,3-dione], for which the IC50 in experiment [1] turned out to be 1400 nM; in experiment [3], 200 nM. Also, the Ki in experiment [2] is greater than 300 nM.

For `CCN1CCN(c2cccc3c2C(=O)N([C@H](CCCOCC(C)C)c2ccc(OC)c(OC)c2)C3=O)CC1` [Cpd 210, (R)-2-[1-(3,4-dimethoxy-phenyl)-4-isobutoxy-butyl]-4-(4-ethyl-piperazin-1-yl)-isoindole-1,3-dione], the IC50 in experiment [1] was greater than 10000 nM; in experiment [3], 6200 nM. The molecule also had an inhibition constant Ki in experiment [2] greater than 300 nM.

As to `COc1ccc([C@@H](CCNC(=O)c2csc(C)n2)N2C(=O)c3cccc(N4CCN([C@H](C)c5ccccc5)CC4)c3C2=O)cc1OC` [Cpd 211, (R)-2-methyl-thiazole-4-carboxylic acid (3-(3,4-dimethoxy-phenyl)-3-{1,3-dioxo-4-[4-(1R)-(1-phenyl-ethyl)-piperazin-1-yl]-1,3-dihydro-isoindol-2-yl}-propyl)-amide], the half-inhibitory concentration (IC50) in experiment [1] was determined as 1200 nM; in experiment [3], 19 nM. For the same molecule, the Ki in experiment [2] was 89 nM.

For the molecule `COc1ccc([C@@H](CCCNC(=O)C(F)(F)F)N2C(=O)c3cccc(N4CCN([C@H](C)c5ccccc5)CC4)c3C2=O)cc1OC` [Cpd 212, (R)-N-(4-(3,4-dimethoxy-phenyl)-4-{1,3-dioxo-4-[4-(1R)-(1-phenyl-ethyl)-piperazin-1-yl]-1,3-dihydro-isoindol-2-yl}-butyl)-2,2,2-trifluoro-acetamide], the results for the IC50 in experiment [1] and in experiment [3] were 790 nM and 19 nM, respectively. This molecule displayed a Ki in experiment [2] of 26 nM.

For `COc1ccc([C@@H](CCCNC(=O)COC(C)(C)C)N2C(=O)c3cccc(N4CCN([C@H](C)c5ccccc5)CC4)c3C2=O)cc1OC` [Cpd 213, (R)-2-tert-butoxy-N-(4-(3,4-dimethoxy-phenyl)-4-{1,3-dioxo-4-[4-(1R)-(1-phenyl-ethyl)-piperazin-1-yl]-1,3-dihydro-isoindol-2-yl}-butyl)-acetamide], the IC50 in experiment [1] worked out at 730 nM; in experiment [3], 17 nM. Moreover, in experiment [2], the Ki is 54 nM.

For the molecule `CCN1CCN(c2cccc3c2C(=O)N([C@H](CCCOCc2cccs2)c2ccc(OC)c(OC)c2)C3=O)CC1` [Cpd 214, (R)-2-[1-(3,4-dimethoxy-phenyl)-4-(thiophen-2-ylmethoxy)-butyl]-4-(4-ethyl-piperazin-1-yl)-isoindole-1,3-dione], the values for the IC50 in experiment [1] and in experiment [3] were greater than 10000 nM and 9500 nM, respectively. Further, the Ki in experiment [2] was greater than 300 nM.

Consider `COc1ccc([C@@H](CCCNC(=O)c2c(C)n[nH]c2C)N2C(=O)c3cccc(N4CCN([C@H](C)c5ccccc5)CC4)c3C2=O)cc1OC` [Cpd 215, (R)-3,5-dimethyl-1H-pyrazole-4-carboxylic acid (4-(3,4-dimethoxy-phenyl)-4-{1,3-dioxo-4-[4-(1R)-(1-phenyl-ethyl)-piperazin-1-yl]-1,3-dihydro-isoindol-2-yl}-butyl)-amide], for which the IC50 in experiment [1] stood at 37 nM; in experiment [3] it was 11 nM. The inhibition constant (Ki) in experiment [2] (setting [4]) is 87 nM.

`COc1ccc([C@@H](CCNC(=O)c2cnoc2C)N2C(=O)c3cccc(N4CCN([C@H](C)c5ccccc5)CC4)c3C2=O)cc1OC` [Cpd 217, (R)-5-methyl-isoxazole-4-carboxylic acid (3-(3,4-dimethoxy-phenyl)-3-{1,3-dioxo-4-[4-(1R)-(1-phenyl-ethyl)-piperazin-1-yl]-1,3-dihydro-isoindol-2-yl}-propyl)-amide]: the 50% inhibitory concentration (IC50) in experiment [1] came out at 1000 nM; in experiment [3] it was 14 nM. In experiment [2], this molecule displayed a Ki of 32 nM.

Turning to `CCN1CCN(c2cccc3c2C(=O)N([C@H](CCCOCC(=O)O)c2ccc(OC)c(OC)c2)C3=O)CC1` [Cpd 218, (R)-{4-(3,4-dimethoxy-phenyl)-4-[4-(4-ethyl-piperazin-1-yl)-1,3-dioxo-1,3-dihydro-isoindol-2-yl]-butoxy}-acetic acid], the concentration for half-maximal inhibition (IC50) in experiment [1] was determined as 2400 nM; in experiment [3], 240 nM. The molecule also had a Ki in experiment [2] greater than 300 nM.

In the case of `COc1ccc([C@@H](CCNS(=O)(=O)c2cn(C)c(C)n2)N2C(=O)c3cccc(N4CCN([C@H](C)c5ccccc5)CC4)c3C2=O)cc1OC` [Cpd 219, (R)-1,2-dimethyl-1H-imidazole-4-sulfonic acid (3-(3,4-dimethoxy-phenyl)-3-{1,3-dioxo-4-[4-(1R)-(1-phenyl-ethyl)-piperazin-1-yl]-1,3-dihydro-isoindol-2-yl}-propyl)-amide], the figures for the IC50 in experiment [1] and in experiment [3] were 1000 nM and 22 nM, respectively. In experiment [2], the affinity, expressed as Ki, was 44 nM.
